Measurements taken from ChEMBL document CHEMBL1201862, “PubChem BioAssay data set” (2004).
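Growth conditions: 96-well plates. Treatment: test compound, 48 hours, 5 concentrations. Analysis: linear interpolation between bracketing concentrations; unreached endpoints set to highest concentration. Here, GI50 denotes the concentration required for 50% inhibition of growth.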 Activity calls are given as the source filed them. Rule as the data show it: active = GI50 up to about 1.1 µM and inactive = higher.

Assays:
Test in all cases: growth of human tumour cells (NCI), 48 h
CCRF-CEM = tested on: CCRF-CEM
COLO 205 = tested on: COLO 205
HCT-15 = tested on: HCT-15
HOP-92 = tested on: HOP-92
HT-29 = tested on: HT-29
Hs-578T = tested on: Hs-578T
IGROV-1 = tested on: IGROV-1
M14 = tested on: M14
MDA-MB-231 = tested on: MDA-MB-231
MDA-MB-435 = tested on: MDA-MB-435
Malme-3M = tested on: Malme-3M
SF-268 = tested on: SF-268
SK-MEL-28 = tested on: SK-MEL-28
SK-MEL-5 = tested on: SK-MEL-5
SN12C = tested on: SN12C
SNB-19 = tested on: SNB-19
SNB-75 = tested on: SNB-75
SW-620 = tested on: SW-620
UO-31 = tested on: UO-31
BT-549 = tested on: BT-549

| SMILES | GI50 (CCRF-CEM) | GI50 (COLO 205) | GI50 (HCT-15) [µM] | GI50 (HOP-92) | GI50 (HT-29) | GI50 (Hs-578T) | GI50 (IGROV-1) | GI50 (M14) | GI50 (MDA-MB-231) | GI50 (MDA-MB-435) | GI50 (Malme-3M) | GI50 (SF-268) | GI50 (SK-MEL-28) | GI50 (SK-MEL-5) | GI50 (SN12C) | GI50 (SNB-19) | GI50 (SNB-75) | GI50 (SW-620) | GI50 (UO-31) | GI50 (BT-549) |
| --- | --- | --- | --- | --- | --- | --- | --- | --- | --- | --- | --- | --- | --- | --- | --- | --- | --- | --- | --- | --- |
| NC(=O)CC(Nc1ncc2c(n1)-c1ccccc1OC2)C(=O)O (stereo unspecified) | > 100 µM (inactive) | > 100 µM (inactive) | 85.7 | > 100 µM (inactive) | 64.3 µM (inactive) | > 100 µM (inactive) | 24.2 µM (inactive) | > 100 µM (inactive) | > 100 µM (inactive) | > 100 µM (inactive) | 92 µM (inactive) | > 100 µM (inactive) | > 100 µM (inactive) | > 100 µM (inactive) | > 100 µM (inactive) | > 100 µM (inactive) | 67.9 µM (inactive) | > 100 µM (inactive) | > 100 µM (inactive) |  |
| N#Cc1ccccc1NC(=O)C(=O)C(C(=O)c1ccncc1)C1OC(=O)c2ccccc21 (stereo unspecified) | 79.3 µM (inactive) | > 100 µM (inactive) | > 100 | > 100 µM (inactive) | > 100 µM (inactive) |  | > 100 µM (inactive) | > 100 µM (inactive) |  |  | > 100 µM (inactive) | > 100 µM (inactive) | > 100 µM (inactive) | > 100 µM (inactive) | > 100 µM (inactive) | > 100 µM (inactive) | > 100 µM (inactive) | > 100 µM (inactive) | > 100 µM (inactive) |  |
| O=C(N/N=C/c1ccccc1)c1c(-c2cccnc2)cnc2ccccc12 | > 100 µM (inactive) | > 100 µM (inactive) | 48 | > 100 µM (inactive) | 42.1 µM (inactive) |  | 58.7 µM (inactive) | > 100 µM (inactive) |  |  | > 100 µM (inactive) | > 100 µM (inactive) | > 100 µM (inactive) | 43.7 µM (inactive) | > 100 µM (inactive) | > 100 µM (inactive) | 34.8 µM (inactive) | 59.6 µM (inactive) | > 100 µM (inactive) | 79.4 µM (inactive) |
| Cc1ccc2c(n1)NC(=O)C(Cc1ccccc1)(N=[N+]=[N-])C2=O (stereo unspecified) | > 100 µM (inactive) | > 100 µM (inactive) | > 100 | > 100 µM (inactive) | > 100 µM (inactive) |  | > 100 µM (inactive) | > 100 µM (inactive) | > 100 µM (inactive) | > 100 µM (inactive) | > 100 µM (inactive) | > 100 µM (inactive) | > 100 µM (inactive) |  | > 100 µM (inactive) | > 100 µM (inactive) |  | > 100 µM (inactive) | > 100 µM (inactive) | > 100 µM (inactive) |
| N#Cc1c(-c2ccc([N+](=O)[O-])cc2)cc(-c2ccc(Nc3ccnc4cc(Cl)ccc34)cc2)[nH]c1=O |  | > 100 µM (inactive) | > 100 | > 100 µM (inactive) |  |  | > 100 µM (inactive) | > 100 µM (inactive) | > 100 µM (inactive) | > 100 µM (inactive) | > 100 µM (inactive) | > 100 µM (inactive) | > 100 µM (inactive) |  |  | 63.8 µM (inactive) | > 100 µM (inactive) | > 100 µM (inactive) | > 100 µM (inactive) | > 100 µM (inactive) |
| C[n+]1c(-c2ccc(/C=N/NC(=S)N/N=C/c3ccc(-c4cn5ccsc5[n+]4C)cc3)cc2)cn2ccsc21 | 36.6 µM (inactive) | > 100 µM (inactive) | > 100 |  | 75.5 µM (inactive) | > 100 µM (inactive) | > 100 µM (inactive) | > 100 µM (inactive) | > 100 µM (inactive) | 37.7 µM (inactive) |  | > 100 µM (inactive) | > 100 µM (inactive) | > 100 µM (inactive) | > 100 µM (inactive) | > 100 µM (inactive) | > 100 µM (inactive) | > 100 µM (inactive) | > 100 µM (inactive) |  |
| c1ccc2c(c1)CCN2CCN1CCc2ccccc21 | > 10 µM (inactive) | > 10 µM (inactive) | > 10 | > 10 µM (inactive) | > 10 µM (inactive) | > 10 µM (inactive) | > 10 µM (inactive) | > 10 µM (inactive) | > 10 µM (inactive) | > 10 µM (inactive) |  | > 10 µM (inactive) | > 10 µM (inactive) | > 10 µM (inactive) | > 10 µM (inactive) | > 10 µM (inactive) | > 10 µM (inactive) | > 10 µM (inactive) | > 10 µM (inactive) |  |
| CN(C)C(=O)Oc1ccc[n+](C)c1 [PYRIDOSTIGMINE BROMIDE] |  | > 100 µM (inactive) | > 100 |  | > 100 µM (inactive) | > 100 µM (inactive) | > 100 µM (inactive) |  | > 100 µM (inactive) | > 100 µM (inactive) | > 100 µM (inactive) | > 100 µM (inactive) | > 100 µM (inactive) | > 100 µM (inactive) | > 100 µM (inactive) | > 100 µM (inactive) | > 100 µM (inactive) | > 100 µM (inactive) | > 100 µM (inactive) | > 100 µM (inactive) |
